Data reported in patent publication US20080171704A1, “Composition and method for treating diabetes” (priority 2001, published 2008).
Where a SMILES comes first, the peptide text is derived from it.

How the values were obtained:
[1] = Stability of bulk INGAP Peptide (lyophilized powder); assay type: physicochemical
Method: Stability is determined by comparing various parameters including, but not limited to, degree of purity, total percentage of impurities, percentage of individual impurities (as determined by HPLC or other suitable quantitative method), appearance, and water content of the sample. An HPLC method can be used to determine any increase in the levels of degradation products relative to the level of INGAP Peptide. INGAP Peptide samples (both solution and lyophilized powder) are stored at various temperatures, in the presence or absence of humidity, and in light or dark vials. Degradation during different storage conditions can lead to an increase in impurities and decrease in INGAP Peptide content. It is desirable that the sample preparation is more than 80% pure, preferably more than 90% pure, more preferably more than 95%, and most preferably more than 97% pure.
Purity of the INGAP Peptide is maintained under these conditions and degradation products are lower than the acceptable levels.

beagle dogs = experiment: 34-day dog repeat-dose toxicology study; assay type: in vivo
Method: FIG. 8. Effects of daily injection of INGAP Peptide to dogs for 34 days on the area of cells in the pancreas that becomes positive for insulin by immunohistochemical staining. Data are mean ±SEM. The percentage of cross-sectional area stained for insulin was determined with an Olympus microscope (150×) and image analysis software (Image Pro Plus Version 4.0, Media Cybernetics).
A repeat-dose toxicology study was conducted in beagle dogs for 34 days with daily IM injection of INGAP Peptide at 0, 0.5, 1.5, and 10 mg/kg/day. Pancreatic tissue was obtained for quantitation of β-cell mass by immunohistochemistry from animals sacrificed on Day 34, at termination of treatment, and from recovery animals sacrificed 25 days after termination of treatment. Pancreatic β-cell mass was increased following INGAP Peptide administration (see FIG. 8).

normal hamsters = experiment: Islet formation in normal hamsters; assay type: in vivo, Syrian golden Hamsters; details: 5 mg/kg IP daily
Method: FIG. 2. Increase in pancreatic endocrine cell mass with INGAP Peptide. Normal Syrian golden Hamsters were treated with saline (control) or INGAP Peptide IP for either 10 days or 30 days. The number of islets/ml was determined with a computer-aided Morphometric system employing Image-Pro Plus software.
INGAP Peptide was studied for its effects on islet formation in normal hamsters. INGAP Peptide 5 mg/kg (25 mg/m^2) was given IP daily for 4 weeks and β-cell mass was assessed at 10 days and at 30 days. […] The islet neogenesis effect was manifested by production of more insulin and an increase in the number of islets in the pancreata. Newly formed β-cells appeared in the wall of, and budding from, pancreatic ducts. These insulin-positive cells resulted from ductal epithelial cell differentiation and islet cell growth, and their appearance was proportional to the dose and duration of treatment with INGAP Peptide. Over longer periods of treatment, these cells migrated away from the duct and formed islets in the parenchyma of the pancreas. After 10 consecutive days of INGAP Peptide administration, there was a 30% increase in islet number, and by 30 days there was a doubling of the number of islets in the tissues, consistent with the prior observations using ilotropin, INGAP, and cellophane wrapping in animal models.

[2] = 31-day mouse repeat-dose toxicology study; assay type: in vivo, mice; details: mouse, in vivo; CD-1 mice, 31-day dosing; read-out: no adverse effect level (NOAEL)
Method: (§1) FIG. 7. Immunopositive tissue area in normal mouse following treatment with INGAP Peptide for 31 days. Data are mean ±SEM. The percentage of cross-sectional area stained for insulin was determined with an Olympus microscope (150×) and image analysis software (Image Pro Plus Version 4.0, Media Cybernetics).
(§2) A repeat-dose toxicology study was conducted in mice with 31 days of daily injection of INGAP Peptide at 0, 2, 20, and 100 mg/kg/day. In this study, four treatment groups of 10 males and 10 females each were allocated, as were two groups of recovery animals (5 males and 5 females). Blood was collected at termination and necropsies were performed for gross and microscopic observations. Clinical pathology and serum levels were evaluated in approximately half the animals in each group. Selected organs (brain, adrenal, heart, kidney, liver, lung, pancreas, and spleen) were weighed and relative organ weights were calculated. A section of the pancreas was removed and frozen in liquid nitrogen for evaluation for insulin content and sections of pancreas tissue were submitted for independent microscopic examination. Recovery animals were terminated 28 days after cessation of dosing. Various parameters for further study as well as potentially drug-related abnormal findings were evaluated to determine the reproducibility and potential clinical significance.

CD-1 mice = experiment: 31-day mouse repeat-dose toxicology study; assay type: in vivo
Method: as §1, §2

[3] = tested on: C57BL/6J mice made diabetic with STZ; experiment: In vivo efficacy study in streptozotocin-diabetic mice
Method: FIG. 3. Time course of blood glucose following injection of INGAP Peptide […] twice daily or saline for 39 days to C57BL/6J mice rendered diabetic using a regimen of multiple injections of low-dose streptozotocin. Blood glucose levels were measured every three days.
C57BL/6J mice were made diabetic with STZ (35 mg/kg/day×5 days) and divided in INGAP Peptide-treated (250 ? g twice daily) and saline control groups of 4 animals each. […] The appearance of glucagon producing cells is noteworthy since glucagon plays a major role in the defense against hypoglycemia. This feature of the INGAP Peptide induced islet neogenesis could help to reverse the impaired counter regulatory control of hypoglycemia associated with the overzealous treatment of diabetes. Hypoglycemia was not observed in any of the INGAP Peptide-treated animals. In saline-treated control animals, no new islet formation was observed.

patients = experiment: Human clinical studies in type I or type II diabetes mellitus; assay type: in vivo; details: versus placebo
Method: Doses are often based on the results of efficacy and safety studies in animals. Two doses of INGAP Peptide, 7.5 mg (0.125 mg/kg, or 4.625 mg/m^2 for a 60 kg patient) and 120 mg ([…], or 74 mg/m^2 for a 60 kg patient) are exemplified in the treatment of type I or type II diabetes mellitus. The following parameters are evaluated to determine efficacy of INGAP Peptide treatment. • 1. A reduction of fasting glucose levels by >35 mg/dl while the total insulin dose is maintained. • 2. A reduction of insulin dose by 25% with fasting glucose levels maintained in the normal range as determined by the American Diabetes Association (ADA) criteria. • 3. An increase in fasting C-peptide >1 ng/ml is obtained. An increase in C-peptide of >2 ng/ml in response to Sustacal® (Boost®) is obtained.
Each patient is randomized to receive one single intramuscular injection of INGAP Peptide. After evaluating efficacy and safety data, patients could be given further INGAP Peptide injections as deemed appropriate by the physician.
Stimulated C-peptide tests are performed in the morning after an overnight fasting period of at least 10 hours. The tests are performed only if the fasting glucose is between 80 and 250 mg/dl. Patients can take their diabetes medications the evening before, but should not take them the morning of the test until the test is completed. Blood samples for the determination of C-peptide are drawn immediately before Boost® ingestion, and at 0.5, 2, and 4 hours post-ingestion. Boost® is administered through ingestion. Patients are considered insulin deficient if their fasting C-peptide is <1.0 ng/ml and their maximum stimulated C-peptide value is <2.0 ng/ml.

[4] = tested on: ARIP cells, a rat pancreatic duct cell line; experiment: ARIP cell BrdU proliferation bioassay; assay type: cell-based; details: FIG. 1
Method: To confirm that the synthetic molecule is bioactive, a bioassay may be used to confirm the activity. ARIP cells, a rat pancreatic duct cell line, obtained from ATCC (Manassas, Va.) are used in the assay. Cells are plated into a 96-well culture plate at 10,000 cells/well, and cultured for 24 hours in Dulbecco's […] Essential Medium (DMEM) containing 10% fetal bovine serum. After 24 hours, the medium is replaced with DMEM without serum. […] After 21 hours, the medium is supplemented with bromodeoxyuridine (BrdU) labeling solution from a BrdU cell proliferation ELISA kit (Roche Molecular Biochemicals) and cultured for a further 3 hours. At 24 hours the cells are dried at 60° C. for 60 minutes, fixed and denatured. They are exposed to BrdU antibody for 90 minutes and developed for 15 minutes, all according to kit instructions. BrdU labeling is quantitated on a Wallac Victor 1420 Multilabel Counter. Results are compared against a standard curve of cells grown on the same culture plate, seeded at densities from 100 to 20,000 cells per well.

Structure (SMILES): CC[C@H](C)[C@H](N)C(=O)NCC(=O)N[C@@H](CC(C)C)C(=O)N[C@@H](Cc1c[nH]cn1)C(=O)N[C@@H](CC(=O)O)C(=O)N1CCC[C@H]1C(=O)N[C@@H](CO)C(=O)N[C@@H](Cc1c[nH]cn1)C(=O)NCC(=O)N[C@H](C(=O)N[C@@H](CC(C)C)C(=O)N1CCC[C@H]1C(=O)N[C@@H](CC(N)=O)C(=O)NCC(=O)N[C@@H](CO)C(=O)O)[C@@H](C)O [INGAP Peptide, NH2-Ile-Gly-Leu-His-Asp-Pro-Ser-His-Gly-Thr-Leu-Pro-Asn-Gly-Ser-COOH] (H-IGLHDPSHGTLPNGS-OH)
- degradation on further storage ([1]; lyophilized powder, storage up to six-months): does not cause any noticeable degradation
- stability of lyophilized powder ([1]; various storage conditions): stable under various storage conditions
- pancreatic tissue section review (beagle dogs; 34-day daily IM dosing): no changes such as edema, inflammatory cell infiltration, necrosis or atrophy
- pancreatic β-cell mass (beagle dogs; daily IM 0.5, 1.5, 10 mg/kg/day for 34 days, immunohistochemistry, FIG. 8): increased
- number of islets compared with placebo-treated animals (normal hamsters; FIG. 2): significant increase
- increase in islet number (normal hamsters; after 10 consecutive days): 30%
- number of islets in the tissues (normal hamsters; by 30 days): doubling
- NOAEL [2]: > 100 mg/kg
- insulin-positive tissue area (CD-1 mice; 31 days, FIG. 7): increase in insulin-positive tissue area
- number of small islets (CD-1 mice; duct-associated and amongst acinar tissue): increase in the number of small islets
- extramedullary hematopoiesis in the spleen (CD-1 mice; mouse, in vivo): seen in one male animal at the high dose
- injection site irritation (CD-1 mice; mouse, in vivo): observed in males and females with increased frequency at the highest dose
- microscopic pancreas findings (CD-1 mice; mouse, in vivo): No microscopic evidence of inflammatory cell infiltration, edema, necrosis or atrophy
- blood glucose concentrations ([3]; 250 µg twice daily for 39 days, all four treated animals, FIG. 3): restored to normal
- transdifferentiation of ductal cells (PDX-1 expression) ([3]; FIG. 5): induced transdifferentiation of ductal cells
- histopathologic evaluation of islets ([3]; FIGS. 4 and 6): both the presence of normal-appearing islets and areas of new islet formation
- hypoglycemia ([3]; any of the treated animals): not observed
- durability of the effect after dosing stopped ([3]; dosing stopped after 39 days, study terminated at 48 days): 48 days
- islet inflammation ([3]; versus saline-treated STZ-diabetic animals, FIG. 6): markedly reduced
- sugar tolerance (patients; intramuscular injection): improved sugar tolerance
- C-peptide level in response to Boost® (patients): an increase in C-peptide level in response to Boost®
- fasting C-peptide level (patients): an increase in fasting C-peptide level
- fasting glucose level (patients): a reduction in fasting glucose level
- insulin dose required (patients): a reduction in insulin does required
- increase in cell count compared with controls ([4]; 0.1 µg/ml INGAP Peptide, 24 h, BrdU ELISA): ~1.6 fold
- cell number, dose dependence [4]: dose dependant increase in cell number
